“And” between values parts separate entries of the source, which are not always exact repeats. Equal values may be shown once.
What was measured:
PIK3CB = PIK3CB (UniProt P42338); test: Inhibition of PIK3CB Kinase Activity; details: for inhibition: concentration not given here
PIK3CD (mouse) [1] = test: Assessment of Stimulus Induced B Cell Proliferation; details: b cells
PIK3CA = PIK3CA (UniProt P42336); test: Inhibition of PIK3CA Kinase Activity; details: for inhibition: concentration not given here
Chain of PIK3CA (P42336 whole entry, looked up): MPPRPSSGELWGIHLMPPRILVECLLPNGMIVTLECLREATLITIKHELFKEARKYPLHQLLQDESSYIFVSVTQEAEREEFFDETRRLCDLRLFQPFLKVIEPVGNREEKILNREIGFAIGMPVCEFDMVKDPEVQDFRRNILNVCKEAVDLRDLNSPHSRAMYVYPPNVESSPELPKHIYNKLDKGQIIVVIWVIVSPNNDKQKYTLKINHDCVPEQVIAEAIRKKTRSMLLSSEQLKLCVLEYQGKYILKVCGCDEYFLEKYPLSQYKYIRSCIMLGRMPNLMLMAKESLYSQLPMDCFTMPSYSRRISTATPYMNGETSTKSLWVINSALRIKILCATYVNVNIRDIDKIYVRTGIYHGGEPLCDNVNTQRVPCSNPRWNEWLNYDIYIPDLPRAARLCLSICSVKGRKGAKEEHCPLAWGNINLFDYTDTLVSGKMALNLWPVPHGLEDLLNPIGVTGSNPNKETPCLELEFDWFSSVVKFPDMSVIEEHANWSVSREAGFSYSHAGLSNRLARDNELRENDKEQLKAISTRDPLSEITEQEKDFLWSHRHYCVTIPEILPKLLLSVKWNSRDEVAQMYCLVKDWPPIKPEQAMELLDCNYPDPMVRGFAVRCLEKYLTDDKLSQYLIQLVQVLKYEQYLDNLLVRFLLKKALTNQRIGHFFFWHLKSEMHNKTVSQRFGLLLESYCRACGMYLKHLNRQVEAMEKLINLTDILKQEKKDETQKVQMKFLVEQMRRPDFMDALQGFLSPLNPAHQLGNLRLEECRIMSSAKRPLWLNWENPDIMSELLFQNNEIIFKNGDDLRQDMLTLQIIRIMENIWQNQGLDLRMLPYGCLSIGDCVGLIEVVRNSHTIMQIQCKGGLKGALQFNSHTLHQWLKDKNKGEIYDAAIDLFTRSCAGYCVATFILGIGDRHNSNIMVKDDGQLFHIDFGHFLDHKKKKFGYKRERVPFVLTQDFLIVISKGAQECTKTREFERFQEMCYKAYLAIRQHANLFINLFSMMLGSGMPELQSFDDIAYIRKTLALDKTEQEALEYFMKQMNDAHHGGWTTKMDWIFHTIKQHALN

PIK3CD (Human) [2] = molecular target: PIK3CD (Human) (UniProt O00329); test: Assessment of Stimulus Induced TCE Cell Proliferation; details: t cells
Chain of PIK3CD (Human) (O00329 whole entry, looked up): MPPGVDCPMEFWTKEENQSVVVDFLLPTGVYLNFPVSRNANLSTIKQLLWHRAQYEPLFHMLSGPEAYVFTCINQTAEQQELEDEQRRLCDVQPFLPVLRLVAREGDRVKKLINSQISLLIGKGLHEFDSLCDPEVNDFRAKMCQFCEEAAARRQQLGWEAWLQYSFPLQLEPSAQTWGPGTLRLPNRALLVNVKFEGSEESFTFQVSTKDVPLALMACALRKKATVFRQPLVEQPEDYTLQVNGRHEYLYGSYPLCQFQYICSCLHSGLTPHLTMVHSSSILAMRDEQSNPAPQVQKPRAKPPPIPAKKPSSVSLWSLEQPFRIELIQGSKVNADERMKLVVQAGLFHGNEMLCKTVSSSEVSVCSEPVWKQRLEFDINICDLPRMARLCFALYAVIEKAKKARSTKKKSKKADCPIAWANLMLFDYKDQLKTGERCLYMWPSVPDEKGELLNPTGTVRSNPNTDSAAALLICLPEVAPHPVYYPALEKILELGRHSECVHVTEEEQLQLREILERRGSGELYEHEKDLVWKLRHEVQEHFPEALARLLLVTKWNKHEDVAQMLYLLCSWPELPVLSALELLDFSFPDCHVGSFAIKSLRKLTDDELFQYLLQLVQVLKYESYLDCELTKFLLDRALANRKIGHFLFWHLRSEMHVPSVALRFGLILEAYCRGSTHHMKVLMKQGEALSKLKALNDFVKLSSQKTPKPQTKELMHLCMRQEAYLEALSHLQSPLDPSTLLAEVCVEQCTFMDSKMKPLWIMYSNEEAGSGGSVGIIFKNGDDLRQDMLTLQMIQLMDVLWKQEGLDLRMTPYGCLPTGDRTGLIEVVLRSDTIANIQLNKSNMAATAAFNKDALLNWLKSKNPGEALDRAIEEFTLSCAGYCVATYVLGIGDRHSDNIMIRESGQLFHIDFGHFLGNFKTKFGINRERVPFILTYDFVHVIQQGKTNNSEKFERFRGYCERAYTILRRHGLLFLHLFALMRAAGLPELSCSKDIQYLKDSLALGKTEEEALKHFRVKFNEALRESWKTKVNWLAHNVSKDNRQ

PIK3CG = PIK3CG (UniProt P48736); test: Inhibition of PIK3CG Kinase Activity; details: for inhibition: concentration not given here
Chain of PIK3CG (P48736 whole entry, looked up): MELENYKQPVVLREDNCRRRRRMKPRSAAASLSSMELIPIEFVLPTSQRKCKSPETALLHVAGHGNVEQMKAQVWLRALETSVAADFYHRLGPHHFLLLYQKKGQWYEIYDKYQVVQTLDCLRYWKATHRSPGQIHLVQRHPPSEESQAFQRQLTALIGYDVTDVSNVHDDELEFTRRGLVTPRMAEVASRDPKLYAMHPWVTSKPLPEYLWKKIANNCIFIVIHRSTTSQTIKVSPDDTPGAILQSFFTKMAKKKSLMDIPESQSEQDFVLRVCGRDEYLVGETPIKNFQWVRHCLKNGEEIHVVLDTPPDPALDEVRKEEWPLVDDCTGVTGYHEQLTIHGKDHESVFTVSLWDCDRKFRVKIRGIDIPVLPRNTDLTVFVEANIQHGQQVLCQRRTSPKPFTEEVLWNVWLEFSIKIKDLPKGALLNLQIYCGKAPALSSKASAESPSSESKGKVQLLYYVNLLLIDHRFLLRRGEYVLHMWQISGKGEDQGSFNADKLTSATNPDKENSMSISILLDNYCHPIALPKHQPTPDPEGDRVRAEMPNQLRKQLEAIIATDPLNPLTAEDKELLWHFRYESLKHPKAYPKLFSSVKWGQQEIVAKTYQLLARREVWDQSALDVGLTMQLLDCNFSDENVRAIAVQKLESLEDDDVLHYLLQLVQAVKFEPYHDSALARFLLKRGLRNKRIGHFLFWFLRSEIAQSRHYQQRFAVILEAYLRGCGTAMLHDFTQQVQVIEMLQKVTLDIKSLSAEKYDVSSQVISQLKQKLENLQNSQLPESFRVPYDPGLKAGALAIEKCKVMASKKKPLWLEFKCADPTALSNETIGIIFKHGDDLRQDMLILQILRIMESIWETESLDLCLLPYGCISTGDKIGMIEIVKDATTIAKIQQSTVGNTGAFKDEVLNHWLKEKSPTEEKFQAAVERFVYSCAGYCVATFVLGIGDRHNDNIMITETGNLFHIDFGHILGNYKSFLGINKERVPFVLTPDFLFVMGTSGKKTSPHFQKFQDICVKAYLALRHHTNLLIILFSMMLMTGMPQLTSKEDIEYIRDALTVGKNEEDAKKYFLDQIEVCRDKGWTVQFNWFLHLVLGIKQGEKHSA

PIK3CD (Human) [3] = molecular target: PIK3CD (Human) (UniProt O00329); test: Evaluation of PIK3CD inhibitors on Elastase Release in Human PMN Cells
PIK3CD (Human) [4] = molecular target: PIK3CD (Human) (UniProt O00329); test: Evaluation of PIK3CD inhibitors on Neutrophil Migration; details: pmn
PIK3CD (Human) [5] = molecular target: PIK3CD (Human) (UniProt O00329); test: Assessment of Cell Proliferation in KU812 Cells
PIK3CD (mouse) [6] = test: Evaluation of PIK3CD inhibitors on Osteoclast Function; details: bone marrow, dose or concentration not given here
PIK3CD (Human) [7] = molecular target: PIK3CD (Human) (UniProt O00329); test: Assessment of RWLeu4 Cell Proliferation
PIK3CD = PIK3CD (UniProt O00329); test: Inhibition of PIK3CD Kinase Activity
Chain of PIK3CD (O00329 whole entry, looked up): as the sequence (O00329 whole entry, looked up) above

PIK3CD (Human) [8] = molecular target: PIK3CD (Human) (UniProt O00329); test: Evaluation of PIK3CD inhibitors on Basophil Function by Histamine Release Assay; details: basophils

Chain of PIK3CB (P42338 whole entry, looked up): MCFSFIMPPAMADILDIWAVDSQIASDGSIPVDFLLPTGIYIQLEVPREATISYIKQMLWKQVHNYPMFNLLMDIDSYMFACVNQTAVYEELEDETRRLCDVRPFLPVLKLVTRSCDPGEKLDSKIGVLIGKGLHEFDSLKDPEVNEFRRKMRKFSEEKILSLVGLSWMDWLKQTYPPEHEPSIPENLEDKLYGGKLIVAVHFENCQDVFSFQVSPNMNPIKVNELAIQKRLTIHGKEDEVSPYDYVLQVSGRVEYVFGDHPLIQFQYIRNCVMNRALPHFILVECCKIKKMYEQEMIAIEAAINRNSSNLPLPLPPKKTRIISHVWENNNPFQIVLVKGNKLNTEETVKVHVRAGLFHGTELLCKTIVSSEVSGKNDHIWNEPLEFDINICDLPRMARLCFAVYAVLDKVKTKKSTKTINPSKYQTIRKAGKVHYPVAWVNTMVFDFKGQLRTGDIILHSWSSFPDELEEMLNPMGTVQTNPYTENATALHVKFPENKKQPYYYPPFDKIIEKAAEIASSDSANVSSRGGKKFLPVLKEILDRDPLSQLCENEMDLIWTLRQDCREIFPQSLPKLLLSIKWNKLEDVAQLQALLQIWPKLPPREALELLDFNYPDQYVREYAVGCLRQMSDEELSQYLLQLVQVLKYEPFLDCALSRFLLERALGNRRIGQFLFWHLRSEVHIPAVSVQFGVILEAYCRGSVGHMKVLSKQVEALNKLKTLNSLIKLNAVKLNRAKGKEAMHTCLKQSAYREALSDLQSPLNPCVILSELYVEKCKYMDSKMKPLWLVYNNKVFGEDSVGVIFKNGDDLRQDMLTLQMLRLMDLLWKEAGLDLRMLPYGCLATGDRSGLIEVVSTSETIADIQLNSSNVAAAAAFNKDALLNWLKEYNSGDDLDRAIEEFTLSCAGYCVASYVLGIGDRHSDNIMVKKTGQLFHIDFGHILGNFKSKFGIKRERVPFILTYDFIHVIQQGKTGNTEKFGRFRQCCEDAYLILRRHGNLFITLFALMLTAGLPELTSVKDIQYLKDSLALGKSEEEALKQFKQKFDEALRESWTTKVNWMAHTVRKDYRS

| SMILES | inhibition (PIK3CB) [%] | EC50 (PIK3CD (mouse) [1]) [µM] | EC50 (PIK3CD (Human) [2]) [µM] | IC50 (PIK3CB) | EC50 (PIK3CD (Human) [3]) [µM] | inhibition (PIK3CA) [%] | also measured |
| --- | --- | --- | --- | --- | --- | --- | --- |
| Nc1ncnc2c1ncn2Cc1nc2cc(F)ccc2c(=O)n1-c1ccccc1Cl | 47 | 3.9 | 5.7 | – | – | – | IC50 (PIK3CA): 92 µM |
| Nc1ncnc2c1ncn2Cc1nc2cccc(F)c2c(=O)n1-c1ccccc1Cl | 18 | 0.7 | 3.9 | 46 µM | 4.3 | – | inhibition (PIK3CG): 9% |
| COc1ccccc1-n1c(CSc2ncnc3[nH]cnc23)nc2ccccc2c1=O | – | – | – | 95 µM | – | 36 | – |
| O=c1c2c(F)cccc2nc(CSc2ncnc3[nH]cnc23)n1Cc1ccccc1 | 23 | 1.4 | 2.6 | – | – | 17 | – |
| Nc1ncnc2c1ncn2Cc1nc2ccc(Cl)cc2c(=O)n1-c1ccccc1Cl | 11 | – | – | – | – | 7 | – |
| COc1cccc(Cn2c(CSc3ncnc4[nH]cnc34)nc3ccccc3c2=O)c1 | – | – | – | – | – | – | IC50 (PIK3CG): 72 µM |
| Nc1ncnc2c1ncn2Cc1nc2ccccc2c(=O)n1N1CCOCC1 | 43 | – | – | – | – | 11 | – |
| Cc1cccc2nc(CSc3ncnc4[nH]cnc34)n(-c3ccccc3F)c(=O)c12 | – | 0.2 | – | – | 0.7 | 13 | IC50 (PIK3CA): 74 µM |
| Cc1cccc2nc(Cn3cnc4c(N)ncnc43)n(-c3ccccc3C(C)C)c(=O)c12 | – | 0.1 | 3.4 | – | 0.5 | -10 | IC50 (PIK3CA): 49 µM; EC50 (PIK3CD (Human) [4]): 0.3 µM |
| O=c1c2ccc([N+](=O)[O-])cc2nc(CSc2ncnc3[nH]cnc23)n1-c1ccccc1Cl | 9 | – | – | – | – | 17 | – |
| COc1ccccc1Cn1c(CSc2ncnc3[nH]cnc23)nc2ccccc2c1=O | 27 | 0.9 | 4.1 | 31 µM | 5.5 | – | EC50 (PIK3CD (Human) [4]): 0.2 µM |
| COc1ccccc1-n1c(CSc2ncnc3[nH]cnc23)nc2cccc(C)c2c1=O | – | 0.3 | – | 30 µM and 9 µM | 0.5 | 19 | IC50 (PIK3CA): 30 µM |
| O=c1c2c(Cl)cccc2nc(CSc2ncnc3[nH]cnc23)n1-c1ccccc1Cl | – | 0.3 | 4.4 | – | 0.3 | – | EC50 (PIK3CD (Human) [4]): 0.3 µM |
| O=c1c2cc(F)c(F)cc2nc(CSc2ncnc3[nH]cnc23)n1-c1ccccc1Cl | – | > 2 | – | 110 µM and 58 µM | 2 | – | – |
| O=c1c2cc(Cl)ccc2nc(CSc2ncnc3[nH]cnc23)n1-c1ccccc1Cl | 31 | – | – | – | – | 31 | – |
| Cc1cccc2nc(Cn3cnc4c(N)ncnc43)n(-c3ccccc3F)c(=O)c12 | – | 0.4 | 5 | 95 µM and 14 µM | 0.9 | – | IC50 (PIK3CA): 90 µM and 70 µM |
| O=c1c2ccccc2nc(CSc2ncnc3[nH]cnc23)n1-c1ccc(Cl)cc1 | 31 | – | – | – | – | – | IC50 (PIK3CA): 0.7 µM |
| O=c1c2cc(Br)ccc2nc(CSc2ncnc3[nH]cnc23)n1-c1ccccc1Cl | -8 | – | – | – | – | 11 | – |
| O=c1c2ccccc2nc(CSc2ncnc3[nH]cnc23)n1-c1ccccc1Cl | – | 0.9 | 5.5 | – | 2.2 | – | EC50 (PIK3CD (Human) [5]): 2 µM; inhibition (PIK3CD (mouse) [6]): 99%; EC50 (PIK3CD (Human) [7]): 2 µM; EC50 (PIK3CD (Human) [4]): 1 to 5 µM |
| O=c1c2ccccc2nc(CSc2ncnc3[nH]cnc23)n1Cc1ccccc1 | 42 | 1.2 | – | 80 µM | 1.3 | – | EC50 (PIK3CD (Human) [4]): 2 µM |
| CCCCn1c(Cn2cnc3c(N)ncnc32)nc2ccccc2c1=O | – | – | – | 41 µM | – | 1 | – |
| O=c1c2ccccc2nc(CSc2ncnc3[nH]cnc23)n1N1CCOCC1 | – | 0.9 | – | – | 5 | – | inhibition (PIK3CG): 57% |
| O=c1c2c(Cl)cccc2nc(CSc2ncnc3[nH]cnc23)n1-c1ccccc1F | – | 0.3 | – | 105 µM and 55 µM | 0.9 | – | – |
| O=c1c2ccccc2nc(CSc2ncnc3[nH]cnc23)n1-c1ccncc1 | – | – | – | 25 µM | – | 30 | – |
| O=c1c2c(F)cccc2nc(CSc2ncnc3[nH]cnc23)n1-c1ccccc1Cl | – | 1.2 | 1.8 | – | 1.3 | – | inhibition (PIK3CG): 83%; EC50 (PIK3CD (Human) [4]): 2 µM |
| O=c1c2ccccc2nc(CSc2ncnc3[nH]cnc23)n1-c1ccccc1 | – | 1.4 | – | – | – | – | inhibition (PIK3CG): 39% |
| Cc1ccccc1-n1c(Cn2cnc3c(N)ncnc32)nc2cccc(C)c2c1=O | – | 0.1 | – | – | – | – | – |

| SMILES | inhibition (PIK3CB) [%] | EC50 (PIK3CD (mouse) [1]) [µM] | EC50 (PIK3CD (Human) [2]) [µM] | IC50 (PIK3CB) | EC50 (PIK3CD (Human) [3]) [µM] | inhibition (PIK3CA) [%] | also measured |
| --- | --- | --- | --- | --- | --- | --- | --- |
| O=c1c2cccc(C(F)(F)F)c2nc(CSc2ncnc3[nH]cnc23)n1-c1ccccc1Cl | 7 | – | – | – | – | 12 | IC50 (PIK3CD): 4.2 µM |
| COc1cc2nc(CSc3ncnc4[nH]cnc34)n(-c3ccccc3Cl)c(=O)c2cc1OC | 19 | – | – | – | – | 9 | – |
| O=c1c2cc(O)ccc2nc(CSc2ncnc3[nH]cnc23)n1-c1ccccc1Cl | 24 | – | – | – | 2.9 | – | IC50 (PIK3CA): 100 µM |
| CCCCn1c(CSc2ncnc3[nH]cnc23)nc2ccccc2c1=O | – | 1.4 | 2.9 | – | 5 | – | – |
| Cc1cccc2nc(CSc3ncnc4[nH]cnc34)n(-c3ccccc3Cl)c(=O)c12 | – | 0.3 | 3.5 | – | 0.2 | – | EC50 (PIK3CD (Human) [8]): 0.025 µM; EC50 (PIK3CD (Human) [4]): 0.3 µM |
| CN1CCN(n2c(CSc3ncnc4[nH]cnc34)nc3ccccc3c2=O)CC1 | – | – | – | 61 µM | – | – | IC50 (PIK3CA): 105 µM |
| O=c1c2cccc(Cl)c2nc(CSc2ncnc3[nH]cnc23)n1-c1ccccc1Cl | – | 1.8 | 3.5 | 110 µM | – | – | IC50 (PIK3CA): 100 µM |
| Cc1cccc2nc(CSc3ncnc4[nH]cnc34)n(-c3c(Cl)cccc3Cl)c(=O)c12 | – | 0.6 | – | 11 µM and 103 µM | – | 8 | IC50 (PIK3CA): 19 µM |
| COc1cc2nc(Cn3cnc4c(N)ncnc43)n(-c3ccccc3Cl)c(=O)c2cc1OC | – | – | – | 45 µM | – | 17 | – |
| O=c1c2cc3ccccc3cc2nc(CSc2ncnc3[nH]cnc23)n1-c1ccccc1Cl | – | 0.9 | 0.9 | 105 µM and 100 µM | – | 0 | IC50 (PIK3CA): 67 µM |
| Nc1ncnc2c1ncn2Cc1nc2cccc(F)c2c(=O)n1Cc1ccccc1 | – | 2 | 6.3 | 30 µM | 5 | -10 | – |
| CCOC(=O)Cn1c(CSc2ncnc3[nH]cnc23)nc2cccc(F)c2c1=O | 26 | – | – | – | 9 | 2 | – |
| Nc1ncnc2c1ncn2Cc1nc2cccc(Cl)c2c(=O)n1-c1ccccc1Cl | – | 0.2 | 5.3 | 6 µM and 44 µM | 0.3 | – | – |
| O=c1cc(N2CCOCC2)oc2c(-c3ccccc3)cccc12 | – | 0.9 | – | – | – | – | inhibition (PIK3CD (Human) [8]; concentration not given here): 100% |
| O=c1c2cc(F)ccc2nc(CSc2ncnc3[nH]cnc23)n1-c1ccccc1Cl | 19 | 0.4 | – | 13 µM | 1 | – | – |
| Nc1ncnc2c1ncn2Cc1nc2cccc(Cl)c2c(=O)n1-c1ccccc1-c1ccccc1 | – | 0.3 | – | 6 µM and 18 µM | 10.5 | 30 | IC50 (PIK3CA): 82 µM |
| Cc1ccccc1-n1c(CSc2ncnc3[nH]cnc23)nc2cccc(Cl)c2c1=O | – | 0.2 | – | – | 0.3 | 26 | IC50 (PIK3CA): 48 µM |
| Nc1ncnc2c1ncn2Cc1nc2c(Cl)cccc2c(=O)n1-c1ccccc1Cl | – | 1 | – | 68 µM | – | 18 | – |
| O=c1c2ccccc2nc(CSc2ncnc3[nH]cnc23)n1-c1cccc(Cl)c1 | 35 | – | – | – | – | 33 | – |
| Nc1ncnc2c1ncn2Cc1nc2cccc(Cl)c2c(=O)n1-c1ccccc1F | – | 0.3 | – | 108 µM and 11 µM | 0.3 | – | IC50 (PIK3CG): 50 µM |
| Cc1cccc2nc(CSc3ncnc4[nH]cnc34)n(-c3ccccc3C(C)C)c(=O)c12 | – | 0.2 | 2.9 | – | 0.3 | – | – |
| O=c1c2c(Cl)cccc2nc(CSc2ncnc3[nH]cnc23)n1-c1ccccc1-c1ccccc1 | 27 | 1.4 | – | 13 µM | – | – | – |
| COc1cccc(-n2c(CSc3ncnc4[nH]cnc34)nc3ccccc3c2=O)c1 | 36 | – | – | – | – | 23 | – |
| Cc1cccc2nc(Cn3cnc4c(N)ncnc43)n(-c3ccccc3Cl)c(=O)c12 | – | 0.3 | 4.2 | 30 µM and 72 µM | 0.4 | – | – |
| Nc1ncnc2c1ncn2Cc1nc2ccc(Br)cc2c(=O)n1-c1ccccc1Cl | 22 | – | – | – | – | 12 | – |
| O=c1c2ccc(F)cc2nc(CSc2ncnc3[nH]cnc23)n1-c1ccccc1Cl | -1 | 1.8 | 2.3 | 110 µM | – | – | inhibition (PIK3CG): 40% |
| O=c1c2ccccc2nc(CSc2ncnc3[nH]ncc23)n1-c1ccccc1Cl | 29 | 3.1 | 5.9 | – | > 20 | 38 | IC50 (PIK3CA): 105 µM; EC50 (PIK3CD (Human) [4]): 1 µM |

— the Kinase Knowledgebase extract (Sharma et al. 2016)
